Measured values: patent US8269043B2, “Bicyclic aryl sphingosine 1-phosphate analogs” (Biogen Idec MA Inc., priority 2008, dated 2012)

How the values were obtained:
[1] = test system: sphingosine kinase 2 (SK2); experiment: Sphingosine kinase 2 (SK2) substrate assay with lysate of transfected HEK293E cells, HPLC detection; type: biochemical, canine, mouse, or human; conditions: 20 μM test compound, 37° C., 70 minutes, HPLC with and without added SPHK2 (FIG. 7)
Description: To assay a test compound for its properties as a substrate of sphingosine kinase 2 (SK2), an assay using recombinantly expressed SK2 was used. Briefly, HEK293E cells were transiently transfected with plasmids containing DNA encoding a sphingosine kinase 2 (SK2) (canine, mouse, or human). […]
The SK2 kinase assay was performed in a 200 μL reaction mixture containing 20 μm sphingosine (control) or 20 μM test compound (prepared as a 200 μM stock solution containing 0.1% fatty acid-free bovine serum albumin (BSA)), 38 μL lysate, and 2 μM ATP (freshly prepared). Kinase reactions were incubated at 37° C. for 70 minutes followed by detection of phosphorylated compound (control or test compound) using UV absorbance at 282 nm. […] The supernatant was analyzed on HPLC using a C18 column (FIG. 7). The parent and phosphorylated test compound were quantitated using area under the curve (AUC) calculation. […]

[2] = target: T1, human S1P1 (Homo sapiens, UniProt P21453); experiment: Calcium mobilization assay, agonist activity at human S1P1; type: cell-based; conditions: recombinant CHEM cells expressing human S1P1, FLIPR Calcium 4 dye (FIG. 8, FIG. 11)
T1 construct: host or cells: recombinant CHEM cells
Description: (§1) Compounds that were not specific for the S1P, receptor, can have activity for other S1P receptor subtypes, e.g., S1P2, S1P3, S1P4, or S1P5, and can cause undesirable side effects. Accordingly, compounds were tested to identify those that were specific for S1P1 activity and had little or no activity, or are antagonists of, S1P3 activity. Accordingly, the test compounds were tested in a calcium mobilization assay to determine agonist activity at either the human S1P1 or human S1P3 receptor, and antagonist activity only at the human S1P3 receptor. The procedure was essentially as described (with modifications described below) in Davis et al. (2005) Journal of Biological Chemistry, vol. 280, pp. 9833-9841, which is incorporated by reference in its entirety. Calcium mobilization assays were performed in recombinant CHEM cells expressing human S1P1 or S1P3 purchased from Millipore (Billerica, Mass.). To detect free intracellular calcium, S1P1 or S1P3 cells were loaded with FLIPR Calcium 4 dye from Molecular Devices (Sunnyvale, Calif.). Cells were imagined for calcium mobilization using a FLIPR^TETRA equipped with a 96-well dispense head.

[3] = target: T2, human S1P3 receptor (Homo sapiens, UniProt Q99500); experiment: Calcium mobilization assay, agonist activity at human S1P3; type: cell-based; conditions: recombinant CHEM cells expressing human S1P3, FLIPR Calcium 4 dye (FIG. 9, FIG. 11)
T2 construct: host or cells: recombinant CHEM cells
Description: as §1

[4] = target: T2, human S1P3 receptor; experiment: Calcium mobilization assay, antagonist activity at human S1P3; type: cell-based; conditions: recombinant CHEM cells expressing human S1P3, FLIPR Calcium 4 dye (FIG. 10, FIG. 11)
Description: as §1

T2 sequence (Q99500 whole entry): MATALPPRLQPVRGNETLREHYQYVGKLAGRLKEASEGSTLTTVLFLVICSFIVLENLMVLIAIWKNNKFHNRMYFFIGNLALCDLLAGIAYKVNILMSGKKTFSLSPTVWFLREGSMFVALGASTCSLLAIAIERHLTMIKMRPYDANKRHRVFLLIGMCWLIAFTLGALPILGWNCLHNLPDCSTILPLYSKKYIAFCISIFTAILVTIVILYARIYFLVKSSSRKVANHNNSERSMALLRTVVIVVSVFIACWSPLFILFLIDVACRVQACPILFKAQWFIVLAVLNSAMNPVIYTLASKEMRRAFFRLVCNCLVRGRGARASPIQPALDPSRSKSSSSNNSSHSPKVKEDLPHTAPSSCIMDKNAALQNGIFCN
T1 sequence (P21453 whole entry): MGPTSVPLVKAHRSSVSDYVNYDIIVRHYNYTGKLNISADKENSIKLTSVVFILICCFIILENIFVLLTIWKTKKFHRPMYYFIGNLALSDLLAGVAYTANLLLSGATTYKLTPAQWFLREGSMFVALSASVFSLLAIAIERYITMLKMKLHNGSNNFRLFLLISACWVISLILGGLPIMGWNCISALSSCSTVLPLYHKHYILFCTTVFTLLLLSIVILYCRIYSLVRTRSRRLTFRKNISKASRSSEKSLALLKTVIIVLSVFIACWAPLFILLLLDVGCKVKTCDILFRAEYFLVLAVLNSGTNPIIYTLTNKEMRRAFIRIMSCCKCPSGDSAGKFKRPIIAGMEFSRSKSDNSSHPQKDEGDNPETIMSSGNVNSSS

Question: `CCCC[C@H]1CC[C@@H](Oc2ccc3cc([C@@](C)(N)COP(=O)(O)O)ccc3c2C(F)(F)F)CC1` (relative stereo) [Example 21, (R)-2-amino-2-(6-(cis-4-butylcyclohexyloxy)-5-(trifluoromethyl)naphthalen-2-yl)propan-1-phosphoric acid] was tested. Which “phosphorylation of test compound by SPHK2” value [1] did it give?
Answer: Its value is “the compound is phosphorylated under these conditions”.

Question: What about the S1P1 agonist activity [2] of the same compound?
Answer: The S1P1 agonist activity was “agonists of the S1P, receptor, with potencies similar to S1P”.

Question: And the S1P3 agonist activity [3]?
Answer: Its S1P3 agonist activity is “weak micromolar partial S1P3 agonist activity”.

Question: What about the S1P3 antagonist activity [4] of the same compound?
Answer: Its S1P3 antagonist activity is “do not antagonize the S1P3 receptor”.
